Like-named read-outs stand apart in the source and are kept apart here.
Assays:
[1] = test system: Caco-2 cells (clone C2BBe1); assay: CACO-2 permeability; type: in vitro ADME; design: unit not given here; conditions: for DM Caco2 A to B: apical to basolateral, donor pH 6.5, receiver pH 7.4; for DM Caco2 B to A: basolateral to apical
Summary of the method: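 Caco-2 monolayers grown 21 days on collagen-coated transwells and checked for integrity by TEER. Donor buffer was HBSS/HEPES/glucose pH 6.5 with 200 μM BNPP; receiver was pH 7.4 with BSA. Compounds were dosed apically or basolaterally for A-to-B and B-to-A transport, with receiver sampling at 1 and 2 h, LC-MS/MS analysis and percent recovery.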

[2] = Stability in pH2 buffered solution; type: physicochemical; conditions: pH2 phosphate buffer, 40° C., 24 h; Table N2
Summary of the method: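 Compounds diluted from 1 mg/mL acetonitrile stock to 50 μg/mL in 50 mM phosphate buffer with 150 mM NaCl at pH2 or pH7, held at 40° C. for 24 hrs. UPLC sampling at 0, 3, 6, 9, 12 hrs, plus 24 hrs from oven-stored duplicate; reported as % area normalized of compound peak.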

GI S9 stability = type: in vitro ADME; conditions: human, s9, pH 7.4
Description: Example G: GI S9 Stability
Duplicate aliquots of test compound or positive control substrate (GS-7340) were added to S9 stock diluted with 100 mM phosphate buffered saline, pH 7.4, to obtain a protein concentration of 1.0 mg/mL. The S9 metabolic reactions were initiated by the addition of the substrates to the S9 reaction mixture to a final concentration of 2 μM. At 0, 10, 20, 30, 60 and 120 min, […] aliquots of the reaction mixture were transferred to plates containing […] of IS/Q solution. After quenching, the plates were centrifuged at 3000 g for 30 minutes, and 150 μL aliquots of each supernatant were diluted with 150 μL water. Aliquots ([…]) of the diluted supernatant were analyzed on a Thermo Q-Exactive mass spectrometer as described below. GI S9 Stability—No phenylmethylsulfonyl fluoride (PMSF): Similar to the procedure described above, test compounds were incubated at 2 μM with 1 mg/mL PMSF-free Intestinal S9 fractions. Samples are removed at 6 time points over the course of a 120 min experiment and the parent compound disappreance and reference compound A formation is determined by mass spectrometry.
Example K: Liquid Chromatography/Mass Spectroscopy Methods for S9 and Plasma Stability
Quantification of test compounds, Reference Compound A (S9 stability assay nucleoside metabolite), and controls was performed by analyte/internal standard peak area ratio (PAR) values measured on a Thermo Q-Exactive mass spectrometer coupled to a Dionex UltiMate 3000 HPLC with a Leap Technologies HTC PAL autosampler. The column used for analysis of test compounds and Reference Compound A was a Waters Acquity BEH C18 ([…] particle size, 2.1′50 mm). The column used for control (GS-7340) was a Thermo Hypersil GOLD ([…] particle size, 2.1′50 mm). Mobile phase A consisted of 0.1% (v/v) formic acid in water. Mobile phase B consisted of 0.1% (v/v) formic acid in acetonitrile. Elution of analytes was achieved by a series of linear gradients of acetonitrile in water containing 0.1°(v/v) formic acid. The mass spectrometer was calibrated on a weekly basis and mass tolerance of 5 ppm was used.

[3] = Thermodynamic solubility in pH7 buffered solution; conditions: 50 mM phosphate buffer pH7, 150 mM NaCl, ambient temperature, 24 hours
Description: Solubility was determined at ambient temperature in a 50 mM phosphate buffered pH7 solution with 150 mM NaCl (to achieve isotonicity). Solids were added to the buffered solution in 1.5-mL Eppendorf tubes, vortexed for 1 minute, then agitated for 24 hours in an Eppendorf ThermoMixer C. […] Supernatants were diluted to a volume of 1 mL with 30:70 v/v acetonitrile:water. All diluted supernatants were analyzed by UPLC using a Waters Acquity UPLC with a PDA UV detector.

[4] = test system: Respiratory syncytial virus recombinant with luciferase (RSV-Luc5) in HEp-2 cells; assay: microbe, parasite or virus in culture; type: cell-based; conditions: human respiratory syncytial virus
Plasma stability = type: in vitro ADME; design: unit not given here; conditions: 37° C., 2 μM substrate
Summary of the method: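 Reaction mixture was sampled at 0.05, 0.5, 1, 2, 3 and 4 hr into quench solution containing internal standard, then centrifuged and diluted with water. Remaining analyte was measured by LC-MS on a Q-Exactive using a formic acid/acetonitrile gradient, with 5 ppm mass tolerance.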

[5] = test system: Respiratory syncytial virus recombinant with luciferase (RSV-Luc5) in Normal Human Bronchial Epithelial (NHBE) cells; assay: microbe, parasite or virus in culture; type: cell-based
[6] = CC50 MT4 cytotoxicity (Cell-Titer Glo); type: cell-based; conditions: human
Summary of the method: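 Uninfected MT-4 and HEp-2 cells cultured 4-5 days at 37° C with 3-fold serially diluted compound (15 nM to 100,000 nM). Viability read by Cell-Titer Glo luminescence; untreated and 2 μM puromycin wells set 100% and 0%. CC50 from non-linear regression as concentration reducing viability by 50%.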

[7] = test system: SARS Coronavirus 2 recombinant with NanoLuc (SARS-CoV2-NLuc) in A549-hACE2 cells; assay: organism not typed; type: cell-based
[8] = Stability in pH7 buffered solution; type: physicochemical; conditions: pH7 phosphate buffer, 40° C., Table N2
Description: Example N: Stability in p112 and p117 Buffered Solutions
The aqueous stability of compounds over a time of 24 hours at 40° C. was assessed. Stability was determined in 50 mM phosphate buffered solutions at both pH2 and pH7, with 150 mM NaCl (to achieve isotonicity). 3-5 mg of solid compounds were added to 7 mL scintillation vials. Acetonitrile was added to each vial to produce a 1 mg/mL stock solution. Stock solutions were diluted to 50 μg/mL in either pH2 or pH7 phosphate buffer, to a volume of 1 mL. For each compound and pH condition, 50 μg/mL samples were prepped in duplicate. One sample was placed on the UPLC tray at 40° C. for analysis, and the second sample was placed in a 40° C. oven for storage. Sample preps for each compound were offset by 40 minutes to account for run time on UPLC.
Concentration timepoints were measured at 0, 3, 6, 9, and 12 hrs. After 24 hrs, samples in the 40° C. oven were removed and analyzed by UPLC.
In FIG. 2, % AN stands for % area normalized. That is, % AN is the area of the compound peak relative to the sum of areas of all the peaks in the UPLC chromatogram. For example, if there were two peaks, compound peak with an area of 9 and another peak with an area of 1, then the % AN of the compound peak would be 90%.

[9] = GI S9 stability - no PMSF; type: in vitro ADME; conditions: pH 7.4
Summary of the method: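 Compounds were incubated at 2 μM with PMSF-free intestinal S9 (1 mg/mL protein) in 100 mM PBS, pH 7.4, sampling at 6 time points over 120 min. Parent disappearance and formation of the nucleoside metabolite Reference Compound A were quantified by LC-MS (Q-Exactive) using analyte/internal standard peak area ratios.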

[10] = HEp-2, 72 h, read-out: RSV Hep2 EC50
[11] = read-out: EC50 RSVFluc-NHBE 384 V2
[12] = uninfected MT-4 cells, Table D3, read-out: CC50 MT4 384
[13] = A549; read-out: EC50 SARS CoV2 NanoLuc A549 384

Compound	DM Caco2 A to B [1]	DM Caco2 B to A [1]	pH 2 Stability 24 h % AN [2]	half-life at 2 µM (GI S9 stability)	Sol pH 7 [3]	EC50 [4, 10]	STA Human Plasma 37 (Plasma stability)	EC50 ([5]; 72 h, read-out: RSV NHBE EC50)	CC50 [6]	EC50 ([7]; 48 h; read-out: SARS-CoV2 EC50)	pH 7 Stability 24 h % AN [8]	EC50 ([7]; 48 h, read-out: SARS-CoV2 EC50)	half-life at 2 µM ([9]; human intestinal S9, PMSF-free, read-out: GIS9-HUMAN-NoPMSF T1/2)	logD (DM logD)	EC50 ([4]; HEp-2, read-out: EC50 RSVFluc-Hep2 384 V2)	EC50 [5, 11]	CC50 [6, 12]	EC50 [7, 13]	GIS9-HUMAN-NoPMSF T1/2 ([9]; human, s9, 2 µM)
N#C[C@@]1(c2ccc3c(N)ncnn23)O[C@H](COC(=O)OCc2ccccc2)[C@@H](O)[C@H]1O [Compound 13, ((2R,3S,4R,5R)-5-(4-aminopyrrolo[2,1-f][1,2,4]triazin-7-yl)-5-cyano-3,4-dihydroxytetrahydrofuran-2-yl)methyl benzyl carbonate]	0.59	8.8	98 % AN	35.3 min	0.12	444 nM	3	1530 nM	39100 nM	1250 nM	97 % AN								
N#C[C@@]1(c2ccc3c(N)ncnn23)O[C@H](COC(=O)OC2CCCCCCC2)[C@@H](O)[C@H]1O [Compound 14, ((2R,3S,4R,5R)-5-(4-aminopyrrolo[2,1-f][1,2,4]triazin-7-yl)-5-cyano-3,4-dihydroxytetrahydrofuran-2-yl)methyl cyclooctyl carbonate]	1.84	21.7	97 % AN	56.3 min		350 nM	262.42	380 nM	> 50000 nM		97 % AN	1560 nM	1.07 min						
CCC(CC)COC(=O)OC[C@H]1O[C@@](C#N)(c2ccc3c(N)ncnn23)[C@H](O)[C@@H]1O [Compound 15, ((2R,3S,4R,5R)-5-(4-aminopyrrolo[2,1-f][1,2,4]triazin-7-yl)-5-cyano-3,4-dihydroxytetrahydrofuran-2-yl)methyl (2-ethylbutyl) carbonate]	1.46	12	98 % AN	33.1 min	0.26	530 nM	40.503	900 nM	> 50000 nM	1240 nM	97 % AN								
CC(C)OC(=O)Nc1ncnn2c([C@]3(C#N)O[C@H](COC(=O)OC(C)C)[C@@H](OC(=O)OC(C)C)[C@H]3O)ccc12 [Compound 62, isopropyl (7-((2R,3R,4S,5R)-2-cyano-3-hydroxy-4-((isopropoxycarbonyl)oxy)-5-(((isopropoxycarbonyl)oxy)methyl)tetrahydrofuran-2-yl)pyrrolo[2,1-f][1,2,4]triazin-4-yl)carbamate]	4.19	12.12	61 % AN	31.1 min	0.1	> 50000 nM	488.7	≥ 5000 nM	> 50000 nM	≥ 5000 nM	10 % AN								
N#C[C@@]1(c2ccc3c(N)ncnn23)O[C@H](COC(=O)OCCl)[C@@H](O)[C@H]1O [Compound 101, ((2R,3S,4R,5R)-5-(4-aminopyrrolo[2,1-f][1,2,4]triazin-7-yl)-5-cyano-3,4-dihydroxytetrahydrofuran-2-yl)methyl (chloromethyl) carbonate]														0.9	1840 nM	1960 nM	> 50000 nM	3210 nM	
CCOP(=O)(O)O[C@H]1[C@@H](O)[C@](C#N)(c2ccc3c(N)ncnn23)O[C@@H]1COC(=O)OC(C)C [Compound 144, [(2R,3S,4R,5R)-5-(4-aminopyrrolo[2,1-f][1,2,4]triazin-7-yl)-5-cyano-3-[ethoxy(hydroxy)phosphoryl]oxy-4-hydroxy-tetrahydrofuran-2-yl]methyl isopropyl carbonate]														0.4		3060 nM	> 50000 nM	> 50000 nM	
CN1[C@@H]2CC[C@H]1C[C@@H](OC(=O)OC[C@H]1O[C@@](C#N)(c3ccc4c(N)ncnn34)[C@H](O)[C@@H]1O)C2 [Compound 156, ((2R,3S,4R,5R)-5-(4-aminopyrrolo[2,1-f][1,2,4]triazin-7-yl)-5-cyano-3,4-dihydroxytetrahydrofuran-2-yl)methyl ((1R,3r,5S)-8-methyl-8-azabicyclo[3.2.1]octan-3-yl) carbonate]	0.12	0.13					248.79							0.3		49800 nM	> 50000 nM	31400 nM	789
